One experiment deals with T1, recombinant human CXCR2 (Homo sapiens, UniProt P25025).
T1 construct: TEV protease site; Gal4-VP16 transcription factor
T1 sequence (P25025 1-360): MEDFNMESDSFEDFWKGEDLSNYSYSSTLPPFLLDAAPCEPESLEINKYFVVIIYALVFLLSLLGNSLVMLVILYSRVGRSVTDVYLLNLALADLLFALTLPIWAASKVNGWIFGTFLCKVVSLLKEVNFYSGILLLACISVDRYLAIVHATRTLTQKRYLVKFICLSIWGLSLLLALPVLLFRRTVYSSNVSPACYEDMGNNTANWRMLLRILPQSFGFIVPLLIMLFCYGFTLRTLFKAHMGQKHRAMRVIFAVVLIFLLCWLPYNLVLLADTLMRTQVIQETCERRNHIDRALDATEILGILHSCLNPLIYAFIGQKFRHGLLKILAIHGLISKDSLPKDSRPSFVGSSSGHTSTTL
Kind of experiment: CXCR2 Tango assay. The format is cell-based. The conditions noted are these: mean pIC50 of multiple test results; stimulated with 80 nM hCXCL1; reporter gene blue/green emission ratio; read-out: pIC50 (CXCR2 Tango assay) (converted). A digest of the protocol:
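Mean pIC50 comes from sigmoidal fits of the blue/green (460/530 nm) CCF4-AM ratio, normalized between hCXCL1-stimulated and DMSO controls. Compounds in 10-point dose response were incubated overnight at 37 °C with recombinant human CXCR2 Tango cells (~10,000/well) and 80 nM hCXCL1, with reporter read-out via arrestin-TEV release of Gal4-VP16.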
Background: A reporter such as luciferase makes a cellular process visible.

For experiment [1], the system named is upregulation of CD11b in GROα stimulated neutrophils in human whole blood. The experiment in a line: Human whole blood assay (CD11b upregulation). The conditions noted are these: Neutrophil, inhibition of CD11b upregulation, GROα 33 nM final, flow cytometry, read-out: pIC50 (human whole blood assay) (converted). In kind it is cell-based. Here is the method:
The whole blood assay tested the compounds' ability to inhibit the upregulation of CD11b in GROα stimulated neutrophils in human whole blood.
Blood was withdrawn by venipuncture from consented adults and poured into a Sterilin tube containing an anti-coagulant Heparin (10 uL/mL of blood). All the test compounds were dissolved in DMSO to 4 mM and serial diluted across the plate, 1 in 3 to provide 10 point dose response curves. The compounds were then diluted 100 fold in -PBS [Phosphate buffered saline (without Calcium Chloride and Magnesium Chloride)] after which, 1 uL was dispensed in 96 U bottom Costar plates using an FX.
10 uL of blood was transferred to the compound plate using a multi-channel pipette, gently tapped and incubated for 15 minutes, at 37° C. After 15 minutes, the stimulant GROα was diluted to 100 nM in 0.1% BSA (Albumin Bovine Serum)-PBS and 5 uL is dispensed across the whole plate for a final concentration of 33 nM. The plate was gently tapped and incubated further for 15 minutes at 37° C. The plate was placed on ice for 1 minute before addition of 10 uL of an antibody cocktail consisting of CD11b-FITC (40 ug/mL) purchased from BioLegend (address: Cambridge Bioscience, Munro House, Trafalgar Way, Bar Hill, Cambridge, UK) and CD16-PE purchased from BD Pharmingen (address: The Danby Building, Edmung Halley Road, Oxford Science Park, Oxford, UK) (stock concentration 100 tests, 2 mL stock volume is diluted 1 in 5). The plate was placed on ice for 1 hour in the dark. The cells were then fixed using 200 uL/well of 1×FACS (Flow Activated Cell Sorting) Lyse solution (Becton and Dickinson-BD) and on ice for 20 minutes in the dark. The plate was centrifuged at 1600 rpm for 5 minutes and re-suspended with 200 uL of ice cold PBS. This step was repeated twice and on the final step the plate was re-suspended with 50 uL of ice cold -PBS for flow Cytometric analysis.
Samples were run on a Becton and Dickinson (BD)-Acurri C6 Flow Cytometer using a HyperCyt sampling apparatus (IntelliCyt) with a flow rate 2 uL/sec. CD11b upregulation is monitored in neutrophils and identified using a combination of both side scatter and CD16 expression.

SMILES strings stand for the structures. Counter-ions that a name gives are not always drawn. Like-named read-outs stand apart in the source and are kept apart here.

For `CC1=CCC[C@H]1NC(=O)Nc1ccc(Cl)c(S(=O)(=O)C(C)(C)[C@H]2CCOC2)c1O` [Compound 56, 1-(4-chloro-2-hydroxy-3-((2-((S)-tetrahydrofuran-3-yl)propan-2-yl)sulfonyl)phenyl)-3-((R)-2-methylcyclopent-2-en-1-yl)urea], the figures for the IC50 (at recombinant human CXCR2; in experiment [1]) were no more than 10 nM and 25.1 to 2510 nM, respectively.

Regarding `CC1(S(=O)(=O)c2c(Cl)ccc(NC(=O)N[C@@H]3CCC=C3Cl)c2O)CCOCC1` [Compound 40, (R)-1-(4-chloro-2-hydroxy-3-((4-methyltetrahydro-2H-pyran-4-yl)sulfonyl)phenyl)-3-(2-chlorocyclopent-2-en-1-yl)urea], the values for the IC50 (on recombinant human CXCR2; in experiment [1]) were no more than 10 nM and 25.1 to 2510 nM, respectively.

For the molecule `CC1=CCC[C@H]1NC(=O)Nc1ccc(Cl)c(S(=O)(=O)C2(C)CCOC2)c1O` (stereo partly drawn) [Compound 68, 1-(4-chloro-2-hydroxy-3-((3-methyltetrahydro-furan-3-yl)sulfonyl)phenyl)-3-((R)-2-methylcyclopent-2-en-1-yl)urea], the IC50 was no more than 10 nM on recombinant human CXCR2 and 25.1 to 2510 nM in experiment [1] (Homo sapiens).

On to `CC1=CCC[C@H]1NC(=O)Nc1ccc(Cl)c(S(=O)(=O)C2CCN(C3CCC3)CC2)c1O` [Compound 82, (R)-1-(4-chloro-3-((1-cyclobutylpiperidin-4-yl)sulfonyl)-2-hydroxyphenyl)-3-(2-methylcyclopent-2-en-1-yl)urea trifluoroacetic acid salt], for which the IC50 on recombinant human CXCR2 is no more than 1 nM; in experiment [1], 25.1 to 2510 nM.

On to `CO[C@@H]1CCC[C@H]1S(=O)(=O)c1c(Cl)ccc(NC(=O)N[C@@H]2CCC=C2C)c1O` (racemic) [Compound 144, (±)trans-1-(4-chloro-2-hydroxy-3-((2-methoxycyclopent-yl)sulfonyl)phenyl)-3-((R)-2-methylcyclopent-2-en-1-yl)urea, trifluoroacetic acid salt], for which the figures for the IC50 (on recombinant human CXCR2; in experiment [1]) were no more than 1 nM and 25.1 to 2510 nM, respectively.

Turning to `CN(C)[C@H]1C[C@H](S(=O)(=O)c2c(Cl)ccc(NC(=O)N[C@@H]3CCC=C3Cl)c2O)C1` [Compound 184, 1-(4-chloro-3-((trans-3-(dimethylamino)cyclobutyl)sulfonyl)-2-hydroxyphenyl)-3-((R)-2-chlorocyclopent-2-en-1-yl)urea, trifluoroacetic acid salt], the figures for the IC50 (at recombinant human CXCR2; in experiment [1]) were no more than 10 nM and 25.1 to 2510 nM, respectively.

For the molecule `CO[C@H]1COC[C@@H]1S(=O)(=O)c1c(Cl)ccc(NC(=O)N[C@@H]2CCC=C2C)c1O` [Compound 151, 1-(4-chloro-2-hydroxy-3-(((3S,4S)-4-methoxytetrahydro-furan-3-yl)sulfonyl)phenyl)-3-((R)-2-methylcyclopent-2-en-1-yl)urea], the IC50 at recombinant human CXCR2 was no more than 10 nM; in experiment [1], 25.1 to 2510 nM.

Take `CC(C)(C1COC1)S(=O)(=O)c1c(Cl)ccc(NC(=O)N[C@@H]2CCC=C2Cl)c1O` [Compound 5, (R)-1-(4-chloro-2-hydroxy-3-((2-(oxetan-3-yl)propan-2-yl)sulfonyl)phenyl)-3-(2-chlorocyclopent-2-en-1-yl)urea]: the IC50 at recombinant human CXCR2 is no more than 10 nM; in experiment [1], 25.1 to 2510 nM.

In the case of `CC1=CCC[C@H]1NC(=O)Nc1ccc(Cl)c(S(=O)(=O)C2CC(F)(F)C2)c1O` [Compound 76, (R)-1-(4-chloro-3-((3,3-difluorocyclobutyl)sulfonyl)-2-hydroxyphenyl)-3-(2-methylcyclopent-2-en-1-yl)urea trifluoroacetic acid salt], the IC50 was no more than 1 nM at recombinant human CXCR2 and 25.1 to 2510 nM in experiment [1].

`CC1=CCC[C@H]1NC(=O)Nc1ccc(Cl)c(S(=O)(=O)C(C)(C)CF)c1O` [Compound 62, (R)-1-(4-chloro-3-((1-fluoro-2-methylpropan-2-yl)sulfonyl)-2-hydroxyphenyl)-3-(2-methylcyclopent-2-en-1-yl)urea]: the IC50 on recombinant human CXCR2 was no more than 1 nM; in experiment [1], 25.1 to 2510 nM.

For the origin of these results see patent US10106515B2, “1-(cyclopent-2-en-1-yl)-3-(2-hydroxy-3-(arylsulfonyl)phenyl)urea derivatives as CXCR2 inhibitors” (GLAXOSMITHKLINE INTELLECTUAL PROPERTY DEVELOPMENT LIMITED, priority 2014, dated 2018).
